Measured values published in patent publication US20180320217A1, “METHODS FOR SAMPLING AND MEASURING ORAL LAVAGE PROTEINS” (The Procter & Gamble Company, priority 2017, published 2018).

Columns and labels:
[1] = biological target: T1, Malate dehydrogenase (Sus scrofa, UniProt P00346); assay: Effect of concentrations of NAD+ on formation of formazan dyes (FIG. 5); type: biochemical; parameters: purchased Sigma-Aldrich 10127248001 / 10127914001 (MDH); conditions: 2 mM WST-8, 15 mM malate, 1.5 units malate dehydrogenase
T1 sequence (P00346 25-338): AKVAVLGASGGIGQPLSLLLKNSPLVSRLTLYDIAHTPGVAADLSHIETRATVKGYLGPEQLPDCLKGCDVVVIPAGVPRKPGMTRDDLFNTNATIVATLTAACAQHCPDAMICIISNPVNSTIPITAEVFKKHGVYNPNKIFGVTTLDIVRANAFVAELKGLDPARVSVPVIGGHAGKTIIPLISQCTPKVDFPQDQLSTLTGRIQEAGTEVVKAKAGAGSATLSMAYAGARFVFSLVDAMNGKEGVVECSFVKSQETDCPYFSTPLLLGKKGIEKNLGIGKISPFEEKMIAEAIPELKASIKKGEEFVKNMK
Procedure: To determine optimal conditions for quantifying enzymes in the gingival brush samples, oral lavage and gingival plaques, an experiment was carried out to determine the effect of NAD+ on conversion of tetrazolium salts to formazan dyes. […] Absorbance was taken at every 5 minutes for 2 hours.

[2] = biological target: T1, Malate dehydrogenase; assay: Effect of concentrations of malate on formation of formazan dyes (FIG. 6); type: biochemical; parameters: purchased Sigma-Aldrich 10127248001 / 10127914001 (MDH); conditions: 2 mM WST-8, 128.5 μM NAD+, 1.5 units malate dehydrogenase
Procedure: Substrate concentrations are important parameters in an enzymatic assay. An experiment was carried out to determine the effect of malate concentrations on formation of formazan dyes. […] Absorbance was measured every 5 minutes for 2 hours. […] But at low concentrations from 0.001 mM to 15.6 mM, formation of formazan dyes was positively correlated with malate concentrations.

Structure (SMILES) | amount of formazan formation versus NAD+ concentration [1] | malate concentrations that inhibited production of formazan dyes [2]
NC(=O)c1ccc[n+]([C@@H]2O[C@H](COP(=O)([O-])OP(=O)(O)OC[C@H]3O[C@@H](n4cnc5c(N)ncnc54)[C@H](O)[C@@H]3O)[C@@H](O)[C@H]2O)c1 [NAD+, Nicotinamide adenine dinucleotide] | proportional to the concentrations of NAD+ | 
O=C(O)CC(O)C(=O)O (centres unmarked) [malate] |  | above 65 mM
